The record followed here is EP4389751A1, “HETEROCYCLIC COMPOUNDS AND USES THEREOF” (Kumquat Biosciences Inc., priority 2021, dated 2024).

Read-outs that look alike come from different tables or passages of the source.

Test [1] deals with T1, KRAS protein (His-tagged GDP-loaded G12S 1-169) (Homo sapiens, UniProt P01116, G12S).
T1 construct: His-tagged GDP-loaded G12S 1-169
In words: Covalent modification of KRAS protein, intact-protein LC-MS. Type of test: binding. The settings on record: 24hrs at room temperature, KRAS protein ~2 µM. The method in brief: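 Percent covalent modification derives from deconvoluted intact-mass intensities of compound-adducted versus unmodified KRAS, measured by LC-ESI-MS. Before analysis, ~2 µM GDP-loaded His-KRAS 1-169 was exposed to compound for 24 h at room temperature and acidified with formic acid.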

The test system of another test is GP2D cells. Description: Cell proliferation assay (CellTiter-Glo), K-Ras G12D cells. Type of test: cell-based. The settings on record: read-out: Inhibition of GP2D Cells (IC50). Put shortly: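 CellTiter-Glo luminescence, taken roughly 5 days after dosing, measured growth of G12D-mutant GP2D cells in DMEM/2 mM glutamine/10% FBS. Compound dilution series (e.g., 9 points, 3-fold) added the day after plating. Four-parameter fitting gave IC50.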
(In general: Cellular ATP, detected with luciferase, serves as a proxy for viable cell number.)

For another test, the target named is T2, K-Ras G12S (Homo sapiens, UniProt P01116, G12S).
T2 construct: made in house; host or cells: E. coli (e.g., BL21 (DE3))
In words: HTRF assay of the K-Ras / SOS1 interaction. It counts as biochemical. The settings on record: IC50 (against K-Ras G12D) to IC50 (against K-Ras G12S). Put shortly: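 Compounds (duplicates, 10 µM to 0.01 µM) were incubated ≥~10 min with Eu-labelled GST-K-Ras G12S and XL665-labelled His-hSOS1 in HEPES pH 7.4 buffer containing NaCl, DTT, BSA and Igepal. Disruption measured as HTRF emission ratio 665/620 nm, fitted to IC50.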
On the technique in general: In TR-FRET formats the signal depends on donor and acceptor labels being close together.

The IC50 is the concentration that inhibits the measured activity by half. Consider `CC(=O)c1c(F)ccc2cc(O)cc(-c3ccc4c(N5CCCC6(CN(C(=O)n7cncn7)C6)C5)nc(OC[C@@]56CCCN5C[C@H](F)C6)nc4c3F)c12` [Compound A154, 1-(8-(4-(2-(1H-1,2,4-triazole-1-carbonyl)-2,6-diazaspiro[3.5]nonan-6-yl)-8-fluoro-2-(((2R,7aS)-2-fluorotetrahydro-1H-pyrrolizin-7a(5H)-yl)methoxy)quinazolin-7-yl)-2-fluoro-6-hydroxynaphthalen-1-yl)ethan-1-one], for which, in test [1], the “% G12S Modification at 24 hr.” value was “+++ (+++ indicates greater than 20% labelling)”. Besides, in the test with GP2D cells (GP2D cells (K-Ras G12D)), the IC50 fell in the range of 1 to 10 µM. Besides, the “Ratio of IC50 KRAS G12D vs. IC50 KRAS G12S” value (“Ratio” below) on K-Ras G12S is listed as “A (A: indicates that the ratio of IC50 against KrasG12D vs. IC50 against KrasG12S is 1-fold or greater)”.
In the case of `Nc1nc2c(-c3c(Cl)cc4c(N5CCOC6(CCN(C(=O)n7cncn7)CC6)C5)nc(OCC56CCCN5C[C@H](F)C6)nc4c3F)ccc(F)c2s1` (stereo partly drawn) [Compound A243, (4-(7-(2-amino-7-fluorobenzo[d]thiazol-4-yl)-6-chloro-8-fluoro-2-(((2R)-2-fluorotetrahydro-1H-pyrrolizin-7a(5H)-yl)methoxy)quinazolin-4-yl)-1-oxa-4,9-diazaspiro [5.5]undecan-9-yl)(1H-1,2,4-triazol-1-yl)methanone], the “% G12S Modification at 24 hr.” value in test [1] is on record as “+++ (+++ indicates greater than 20% labelling)”. In addition, the IC50 with GP2D cells (GP2D cells (K-Ras G12D)) was in the range of 1 to 10 µM. In addition, the “Ratio” value on K-Ras G12S is “A (A: indicates that the ratio of IC50 against KrasG12D vs. IC50 against KrasG12S is 1-fold or greater)”.
For the molecule `Nc1nc2c(-c3c(Cl)cc4c(N5CC6(CCCN(C(=O)n7cncn7)C6)C5)nc(OC[C@@]56CCCN5C[C@H](F)C6)nc4c3F)ccc(F)c2s1` [Compound A230, (2-(7-(2-amino-7-fluorobenzo[d]thiazol-4-yl)-6-chloro-8-fluoro-2-(((2R,7aS)-2-fluorotetrahydro-1H-pyrrolizin-7a(5H)-yl)methoxy)quinazolin-4-yl)-2,6-diazaspiro[3.5]nonan-6-yl)(1H-1,2,4-triazol-1-yl)methanone], the “% G12S Modification at 24 hr.” value in test [1] was “+++ (+++ indicates greater than 20% labelling)”. Besides, in the test with GP2D cells (GP2D cells (K-Ras G12D)), the IC50 lay in the range of 1 to 10 µM. Further, the “Ratio” value on K-Ras G12S was “A (A: indicates that the ratio of IC50 against KrasG12D vs. IC50 against KrasG12S is 1-fold or greater)”.
Take `C#Cc1c(F)ccc2cccc(-c3ccc4c(N5CCN(C(=O)n6cncn6)CC(F)(F)C5)nc(OC[C@@]56CCCN5C[C@H](F)C6)nc4c3F)c12` [Compound A107, (4-(7-(8-ethynyl-7-fluoronaphthalen-1-yl)-8-fluoro-2-(((2R,7aS)-2-fluorotetrahydro-1H-pyrrolizin-7 a(5H)-yl)methoxy)quinazolin-4-yl)-6,6-difluoro-1 ,4-diazepan-1-yl)(1H-1,2,4-triazol-1-yl)methanone]: in test [1], the “% G12S Modification at 24 hr.” value is “++ (++ indicates between about 1%- 20% labelling)”. Also, the IC50 in the test on GP2D cells (GP2D cells (K-Ras G12D)) was in the range of 1 to 10 µM. Further, the “Ratio” value on K-Ras G12S is “A (A: indicates that the ratio of IC50 against KrasG12D vs. IC50 against KrasG12S is 1-fold or greater)”.
Regarding `Nc1nc2c(-c3c(Cl)cc4c(N[C@H]5C[C@H]6CC[C@@H](C5)N6C(=O)n5cncn5)nc(OC[C@@]56CCCN5C[C@H](F)C6)nc4c3F)ccc(F)c2s1` [Compound A207, ((1R,3r,5S)-3-((7-(2-amino-7-fluorobenzo[d]thiazol-4-yl)-6-chloro-8-fluoro-2-(((2R,7aS)-2-fluorotetrahydro-1H-pyrrolizin-7a(5H)-yl)methoxy)quinazolin-4-yl)amino)-8-azabicyclo[3.2.1]octan-8-yl)(1H-1,2,4-triazol-1-yl)methanone], in test [1], the “% G12S Modification at 24 hr.” value is recorded as “+++ (+++ indicates greater than 20% labelling)”. Further, the IC50 with GP2D cells (GP2d) lay in the range of 1 to 10 µM. Further, the “Ratio” value at K-Ras G12S was “A (A: indicates that the ratio of IC50 against KrasG12D vs. IC50 against KrasG12S is 1-fold or greater)”.
`Nc1nc2c(-c3c(Cl)cc4c(N5CC6(CN(C(=O)n7cncn7)CCO6)C5)nc(OC[C@@]56CCCN5C[C@H](F)C6)nc4c3F)ccc(F)c2s1` [Compound A268, (2-(7-(2-amino-7-fluorobenzo[d]thiazol-4-yl)-6-chloro-8-fluoro-2-(((2R,7aS)-2-fluorotetrahydro-1H-pyrrolizin-7a(5H)-yl)methoxy)quinazolin-4-yl)-5-oxa-2,8-diazaspiro[3.5]nonan-8-yl)(1H-1,2,4-triazol-1-yl)methanone]: the “% G12S Modification at 24 hr.” value in test [1] is given as “+++ (+++ indicates greater than 20% labelling)”. Moreover, the IC50 with GP2D cells (GP2D cells (K-Ras G12D)) lay in the range of 1 to 10 µM. Also, the “Ratio” value on K-Ras G12S was “A (A: indicates that the ratio of IC50 against KrasG12D vs. IC50 against KrasG12S is 1-fold or greater)”.
The like results for `CC1(C)CN(c2nc(OC[C@@]34CCCN3C[C@H](F)C4)nc3c(F)c(-c4ccc(F)c5sc(N)c(C#N)c45)c(Cl)cc23)CC2(CN(C(=O)n3cncn3)C2)O1` [Compound A296, 2-amino-4-(6-chloro-4-(6,6-dimethyl-2-(1H-1,2,4-triazole-1-carbonyl)-5-oxa-2,8-diazaspiro[3.5]nonan-8-yl)-8-fluoro-2-(((2R,7aS)-2-fluorotetrahydro-1H-pyrrolizin-7a(5H)-yl)methoxy)quinazolin-7-yl)-7-fluorobenzo[b]thiophene-3-carbonitrile] were, in that order, “+++ (+++ indicates greater than 20% labelling)”, 1 to 10 µM and “A (A: indicates that the ratio of IC50 against KrasG12D vs. IC50 against KrasG12S is 1-fold or greater)”.
The like results for `N#Cc1nccn1C(=O)N1CCCN(c2nc(OC[C@@]34CCCN3C[C@H](F)C4)nc3c(F)c(-c4ccc(F)c5sc(N)nc45)c(Cl)cc23)CC1` [Compound A171, 1-(4-(7-(2-amino-7-fluorobenzo[d]thiazol-4-yl)-6-chloro-8-fluoro-2-(((2R,7aS)-2-fluorotetrahydro-1H-pyrrolizin-7a(5H)-yl)methoxy)quinazolin-4-yl)-1,4-diazepane-1-carbonyl)-1H-imidazole-2-carbonitrile] were, in that order, “+++ (+++ indicates greater than 20% labelling)”, 1 to 10 µM and “A (A: indicates that the ratio of IC50 against KrasG12D vs. IC50 against KrasG12S is 1-fold or greater)”.
`Nc1nc2c(-c3c(Cl)cc4c(N5CCOC6(CCN(C(=O)n7cncn7)C6)C5)nc(OC[C@@]56CCCN5C[C@H](F)C6)nc4c3F)ccc(F)c2s1` (stereo partly drawn) [Compound A221, (9-(7-(2-amino-7-fluorobenzo[d]thiazol-4-yl)-6-chloro-8-fluoro-2-(((2R,7aS)-2-fluorotetrahydro-1H-pyrrolizin-7a(5H)-yl)methoxy)quinazolin-4-yl)-6-oxa-2,9-diazaspiro[4.5]decan-2-yl)(1H-1,2,4-triazol-1-yl)methanone]: the “% G12S Modification at 24 hr.” value in test [1] is “++ (++ indicates between about 1%- 20% labelling)”. For the same molecule, the IC50 in the test on GP2D cells (GP2D cells (K-Ras G12D)) was in the range of 1 to 10 µM. Moreover, the “Ratio” value on K-Ras G12S is reported as “A (A: indicates that the ratio of IC50 against KrasG12D vs. IC50 against KrasG12S is 1-fold or greater)”.
